# Source: patent US10464911B2, “1,3,4-oxadiazole sulfamide derivative compounds as histone deacetylase 6 inhibitor, and the pharmaceutical composition comprising the same” (Chong Kun Dang Pharmaceutical Corp., priority 2015, dated 2019)
# How the values were obtained:
# [1] = target: human recombinant HDAC1 (Homo sapiens (Human), UniProt Q13547); test: HDAC1 enzyme activity inhibition assay (HDAC Fluorimetric Drug Discovery Kit); type: biochemical; details: human recombinant HDAC1, Fluor de Lys substrate 10 μM, 60 minutes
# Procedure: In order to examine the HDAC6 selectivity of the compounds of formula I of the present invention by HDAC1 and HDAC6 enzymatic activity inhibition assays, an experiment was performed using a conventional substance as a control.
# HDAC enzyme activity was measured using a HDAC Fluorimetric Drug Discovery Kit (BML-AK511, 516, Enzo Life Science). For the HDAC1 enzyme activity test, human recombinant HDAC1 (BML-SE456) was used as an enzyme source, and Fluor de Lys®-“SIRT1 (BNL-KI177) was used as a substrate. A 5-fold dilution of the compound was seeded into a 96-well plate, and then 0.3 μg of the enzyme and 10 μM of the substrate were added to each well of the plate and allowed to react at 30 for 60 minutes. Then, Fluor de Lys®-Developer II (BML-KI176) was added thereto and allowed to react for 30 minutes, after which the fluorescence value (Ex 360, Em 460) was measured using a multi-plate reader (Flexstation 3, Molecular Device). The HDAC6 enzyme was tested using human recombinant HDAC6 (382180) (Calbiochem) according to the same protocol as the HDAC1 enzyme activity test method. Based on the resulting values, each IC50 value was calculated using GraphPad Prism4.0 program.
# [2] = target: human recombinant HDAC6 (Homo sapiens (Human), UniProt Q9UBN7); test: HDAC6 enzyme activity inhibition assay (HDAC Fluorimetric Drug Discovery Kit); type: biochemical; details: for HDAC6 selectivity (fold): HDAC6 versus HDAC1; for IC50: human recombinant HDAC6, same protocol as HDAC1 test
# How it was run: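 Recombinant human HDAC1 or HDAC6 (0.3 μg) reacted with 10 μM Fluor de Lys-SIRT1 substrate and 5-fold compound dilutions for 60 min at 30 °C, followed by 30 min developer. Fluorescence read at Ex 360/Em 460; IC50 calculated from the values.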
# Chain of human recombinant HDAC6 (Q9UBN7 whole entry): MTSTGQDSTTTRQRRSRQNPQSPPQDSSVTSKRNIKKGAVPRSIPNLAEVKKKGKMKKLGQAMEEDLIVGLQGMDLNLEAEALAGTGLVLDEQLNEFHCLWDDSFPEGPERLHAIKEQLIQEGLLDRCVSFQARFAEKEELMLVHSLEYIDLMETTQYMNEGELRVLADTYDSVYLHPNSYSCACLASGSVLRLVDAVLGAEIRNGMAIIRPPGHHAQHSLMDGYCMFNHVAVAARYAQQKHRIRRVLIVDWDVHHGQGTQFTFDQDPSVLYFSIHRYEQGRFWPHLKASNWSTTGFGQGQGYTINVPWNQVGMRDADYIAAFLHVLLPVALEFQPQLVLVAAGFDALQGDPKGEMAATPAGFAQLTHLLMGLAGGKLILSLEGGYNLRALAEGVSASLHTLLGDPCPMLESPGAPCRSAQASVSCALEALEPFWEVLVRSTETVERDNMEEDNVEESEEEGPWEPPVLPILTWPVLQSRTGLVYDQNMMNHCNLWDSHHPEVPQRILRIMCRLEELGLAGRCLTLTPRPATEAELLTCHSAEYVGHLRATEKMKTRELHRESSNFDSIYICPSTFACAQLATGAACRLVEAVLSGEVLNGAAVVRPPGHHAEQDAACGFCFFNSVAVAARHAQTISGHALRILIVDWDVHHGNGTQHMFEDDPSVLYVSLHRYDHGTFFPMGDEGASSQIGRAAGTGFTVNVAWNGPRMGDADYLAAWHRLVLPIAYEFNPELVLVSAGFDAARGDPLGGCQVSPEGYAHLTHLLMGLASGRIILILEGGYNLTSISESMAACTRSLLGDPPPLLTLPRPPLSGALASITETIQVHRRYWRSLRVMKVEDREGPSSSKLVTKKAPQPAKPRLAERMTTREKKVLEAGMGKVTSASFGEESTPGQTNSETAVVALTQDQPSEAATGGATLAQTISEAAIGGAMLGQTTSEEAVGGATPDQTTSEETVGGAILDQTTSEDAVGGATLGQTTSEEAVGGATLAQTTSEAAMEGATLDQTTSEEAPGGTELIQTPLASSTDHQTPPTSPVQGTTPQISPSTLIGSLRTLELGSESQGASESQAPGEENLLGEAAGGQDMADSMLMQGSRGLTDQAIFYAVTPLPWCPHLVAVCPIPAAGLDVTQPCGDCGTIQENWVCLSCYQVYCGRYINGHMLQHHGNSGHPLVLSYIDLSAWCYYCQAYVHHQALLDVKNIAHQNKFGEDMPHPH
# Chain of human recombinant HDAC1 (Q13547 whole entry): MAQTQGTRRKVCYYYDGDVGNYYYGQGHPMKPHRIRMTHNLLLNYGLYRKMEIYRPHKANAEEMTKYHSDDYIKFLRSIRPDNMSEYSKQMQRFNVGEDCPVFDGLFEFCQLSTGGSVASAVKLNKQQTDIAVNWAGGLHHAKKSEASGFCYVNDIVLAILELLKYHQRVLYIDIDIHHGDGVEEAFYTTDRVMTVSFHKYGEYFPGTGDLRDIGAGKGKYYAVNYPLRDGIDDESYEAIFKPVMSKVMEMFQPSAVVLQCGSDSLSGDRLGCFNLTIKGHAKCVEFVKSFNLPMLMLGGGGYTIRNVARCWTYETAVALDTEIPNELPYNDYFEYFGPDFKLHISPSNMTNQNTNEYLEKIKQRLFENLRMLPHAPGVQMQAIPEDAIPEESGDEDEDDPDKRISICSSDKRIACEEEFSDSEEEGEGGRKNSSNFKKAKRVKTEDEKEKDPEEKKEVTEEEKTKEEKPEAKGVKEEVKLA
SMILES,IC50 [1] [µM],HDAC6 selectivity (fold) [2] [fold],IC50 [2] [µM]
"Cl.O=S(=O)(N1CCNCC1)N(Cc1ccc(-c2nnc(C(F)(F)F)o2)cc1F)c1ccccc1 [Compound 11293, N-(2-fluoro-4-(5-(trifluoromethyl)-1,3,4-oxadiazol-2-yl)benzyl)-N-phenylpiperazine-1-sulfonamide Hydrochloride]",76,1156,0.066
"CCN1[C@H](C)CN(S(=O)(=O)N(Cc2ccc(-c3nnc(C(F)F)o3)cn2)c2ccccc2)C[C@@H]1C [Compound 11661, (3S,5R)—N-((5-(5-(difluoromethyl)-1,3,4-oxadiazol-2-yl)pyridin-2-yl)methyl)-4-ethyl-3,5-dimethyl-N-phenylpiperazine-1-sulfonamide]",116,1886,0.061
"CN1CCN(CCN(C)S(=O)(=O)N(Cc2ccc(-c3nnc(C(F)F)o3)cc2)c2ccccc2)CC1 [Compound 11702, 2-((4-(((N-methyl-N-(2-(4-methylpiperazin-1-yl)ethyl)sulfamoyl)(phenyl)amino)methyl))phenyl)-5-(difluoromethyl)-1,3,4-oxadiazole]",50.2,542,0.093
"CC(=O)N1[C@H](C)CN(S(=O)(=O)N(Cc2ccc(-c3nnc(C(F)F)o3)cc2)c2cccnc2)C[C@@H]1C [Compound 11660, (3S,5R)-4-acetyl-N-(4-(5-(difluoromethyl)-1,3,4-oxadiazol-2-yl)benzyl)-3,5-dimethyl-N-(pyridin-3-yl)piperazine-1-sulfonamide]",76.5,1206,0.063
"CC(=O)N1[C@H](C)CN(S(=O)(=O)N(Cc2ccc(-c3nnc(C(F)F)o3)cn2)c2ccccc2)C[C@@H]1C [Compound 11659, (3S,5R)-4-acetyl-N-((5-(5-(difluoromethyl)-1,3,4-oxadiazol-2-yl)pyridin-2-yl)methyl)-3,5-dimethyl-N-phenylpiperazine-1-sulfonamide]",72.4,2753,0.026
"O=S(=O)(N1CCN(C2COC2)CC1)N(Cc1ccc(-c2nnc(C(F)F)o2)cc1)c1ccc(F)c(Cl)c1 [Compound 11653, N-(3-chloro-4-fluorophenyl)-N-(4-(5-(difluoromethyl)-1,3,4-oxadiazol-2-yl)benzyl)-4-(oxetan-3-yl)piperazine-1-sulfonamide]",52.4,1214,0.043
"CN1CCN(S(=O)(=O)N(Cc2ccc(-c3nnc(C(F)F)o3)cc2)c2ccc(F)c(Cl)c2)CC1 [Compound 11654, N-(3-chloro-4-fluorophenyl)-N-(4-(5-(difluoromethyl)-1,3,4-oxadiazol-2-yl)benzyl)-4-methylpiperazine-1-sulfonamide]",71.5,1996,0.036
"C[C@@H]1CN(S(=O)(=O)N(Cc2ccc(-c3nnc(C(F)F)o3)cc2)c2cccnc2)C[C@H](C)N1C [Compound 11662, (3S,5R)—N-(4-(5-(difluoromethyl)-1,3,4-oxadiazol-2-yl)benzyl)-3,4,5-trimethyl-N-(pyridin-3-yl)piperazine-1-sulfonamide]",55.3,1182,0.047

# More lines, now with the values ahead:
IC50 [1] [µM],HDAC6 selectivity (fold) [2] [fold],IC50 [2] [µM],SMILES
41.5,710,0.058,"Cl.O=S(=O)(N1CCNCC1)N(Cc1ccc(-c2nnc(C(F)(F)F)o2)cc1F)c1cccc(F)c1 [Compound 11309, N-(2-fluoro-4-(5-(trifluoromethyl)-1,3,4-oxadiazol-2-yl)benzyl)-N-(3-fluorophenyl)piperazine-1-sulfonamide Hydrochloride]"
49.2,2141,0.023,"O=S1(=O)CCN(S(=O)(=O)N(Cc2ccc(-c3nnc(C(F)F)o3)cn2)c2ccc(F)c(Cl)c2)CC1 [Compound 11498, N-(3-chloro-4-fluorophenyl)-N-((5-(5-(difluoromethyl)-1,3,4-oxadiazol-2-yl)pyridin-2-yl)methyl)thiomorpholine-4-sulfonamide 1,1-dioxide]"
47.7,627,0.076,"O=S(=O)(N1CCN(C2COC2)CC1)N(Cc1ccc(-c2nnc(C(F)(F)F)o2)cc1F)c1ccccc1 [Compound 11527, N-(2-fluoro-4-(5-(trifluoromethyl)-1,3,4-oxadiazol-2-yl)benzyl)-4-(oxetan-3-yl)-N-phenylpiperazine-1-sulfonamide]"
41.6,527,0.079,"O=S(=O)(N1CCN(C2COC2)CC1)N(Cc1ccc(-c2nnc(C(F)(F)F)o2)cn1)c1ccccc1 [Compound 11528, 4-(oxetan-3-yl)-N-phenyl-N-((5-(5-(trifluoromethyl)-1,3,4-oxadiazol-2-yl)pyridin-2-yl)methyl)piperazine-1-sulfonamide]"
